Patent US5958875A, “Synthetic peptides derivatives with nerve growth factor-like neurotrophic activity” (The Regents of the University of California, priority 1996, dated 1999)
“Also recorded” adds a separate entry of the source.

Key:
Chick embryo DRG neurons [1] = assay: morphological/MTT assay of neuronal survival; assay type: cell-based; settings: HPLC fractions of cyclized/oxidized, scrambled and linear P7
Experimental: (§1) Bioassays were performed as previously described (Manthorpe et al, "An automated colorimetric microassay for neuronotrophic factors", Dev. Brain Res. 25:191-198 (1986)). Dorsal root ganglia were dissected from embryonic day 8 chick embryos and placed in calcium and magnesium-free Dulbecco's balanced salt solution on ice. […] During this incubation non-neuronal cells (Schwann cells, fibroblasts) more readily attached to the substratum leaving a supernatant containing an enriched neuronal population (80-85% neurons). […]
(§2) The bioassays used for measuring the NGF agonist activity of the compounds of this invention were initially characterized using NGF as a control. […] The neurotrophic activity of NGF is most easily assessed by measuring the number of cells surviving and bearing neurites; however, the lack of neurites in peptide-supported cultures required the use of additional criteria to assess peptide effect. In order to more accurately determine neuronal survival, MTT was added to cultures at 16 hours and cultures assessed under phase contrast microscopy at 24 hours. Intact cells characteristic of surviving neurons which also contained blue MTT product were counted. […] In subsequent studies, activity of both peptides and NGF was assessed by counting the number of intact cells with blue MTT product (morphological/MTT assay) and by the automated MTT assay. […]

Chick embryo DRG neurons [2] = assay: automated MTT neurotrophic assay; assay type: cell-based; settings: HPLC fractions of ten cyclized/oxidized NGF 29-36 region peptides
Experimental: as §1, §2

Chick embryo DRG neurons [3] = assay: neurite outgrowth of cultured neurons; assay type: cell-based
Experimental: as §1
Neuronal survival and neurite outgrowth were assessed by a combination of morphological criteria described previously (Longo et al, "The in vitro biological effect of nerve growth factor is inhibited by synthetic peptides" Cell Regulation 1:189-195 (1990)) and an MTT calorimetric assay (Manthorpe et al., "An automated colorimetric microassay for neuronotrophic factors", Dev. Brain Res. 25:191-198 (1986)). […] The blue product can be quantitated by lysing cells with acid alcohol to solubilize the blue product and measuring overall optical density or by counting the number per area of intact surviving neurons with blue dye. […] For each peptide or NGF concentration, duplicate wells were counted in each bioassay and four values (two strips counted/well) averaged. In other assays, cells were lysed at 24 hours in acid alcohol and the MTT product was dissolved and quantified. […]

NGF p75 receptor = target: T1, NGF p75 receptor (Gallus gallus, UniProt P18519); assay: survival-promoting activity in the presence of p75 antiserum (antibody 9651); assay type: cell-based, chick; settings: p75 antiserum 1:100 final dilution; morphological/MTT assay
T1 construct: Dorsal root ganglia were dissected from embryonic day 8 chick embryos; endogenous in cells; host or cells: primary neurons dissociated from embryonic day 8 chick dorsal root ganglia
T1 sequence (P18519 20-416): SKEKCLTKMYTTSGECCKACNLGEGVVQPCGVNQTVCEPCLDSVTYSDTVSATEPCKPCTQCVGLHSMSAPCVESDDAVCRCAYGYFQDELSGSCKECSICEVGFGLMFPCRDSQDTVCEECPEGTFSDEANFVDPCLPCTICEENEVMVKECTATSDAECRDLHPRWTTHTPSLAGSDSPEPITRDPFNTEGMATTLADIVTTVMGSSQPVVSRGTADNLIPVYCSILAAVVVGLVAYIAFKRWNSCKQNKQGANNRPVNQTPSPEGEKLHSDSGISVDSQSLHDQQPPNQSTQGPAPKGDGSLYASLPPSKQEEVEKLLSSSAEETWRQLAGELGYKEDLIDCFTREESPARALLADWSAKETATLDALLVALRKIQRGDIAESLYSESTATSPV
Experimental: Antiserum (antibody 9651) directed against the third and fourth cysteine rich repeats of the extracellular domain of mouse p75 was obtained as described in Huber (infra). […] Antiserum and control non-immune serum were tested at final dilutions of 1:100 in the presence of NGF or peptide.
To determine if activity of P7 and P7-scrambled peptides was dependent on p75 , their activity in the presence of p75 antiserum (1:100 final dilution) which inhibits NGF neurotrophic activity was measured. […] In 15 bioassays, control background survival was 14±2% (S.E.) of the NGF maximum compared to a background in the presence of p75 antiserum of 13±2% in 5 of the same 15 assays.

IPenKGKEVCT [Peptide P7]
survival-promoting activity of P7 forms (in words) (Chick embryo DRG neurons [1]): showed activity; also recorded: significantly greater activity than P7-scrambled peptides | survival-promoting activity (in words) (Chick embryo DRG neurons [2]): highest activity at the lowest concentrations; also recorded: greatest survival-promoting activity at the lowest concentration | neurite outgrowth (in words) (Chick embryo DRG neurons [3]): continued to lack neurites

B1: NGF: Mouse submaxillary β-NGF purified via 7S NGF (protein, UniProt P01139 122-241, looked up)
Beta-nerve growth factor: SSTHPVFHMGEFSVCDSVSVWVGDKTTATDIKGKEVTVLAEVNINNSVFRQYFFETKCRASNPVESGCRGIDSKHWNSYCTTTHTFVKALTTDEKQAAWRFIRIDTACVCVLSRKATRRG
modifications: Beta-nerve growth factor
notes: Mouse submaxillary β-NGF purified via 7S NGF
inhibition of survival-promoting activity by p75 antiserum, average over the three concentrations tested (NGF p75 receptor): 40%
